Calls of active or inactive are those of the source. No cut-off for these calls is given here.
Columns and labels:
A549 [1] = test: Effect on mitochondrial membrane permeability in human A549 cells assessed as decrease in red to green fluorescence ratio at sub-IC50 incubated for 48 hrs by JC-1 staining based analysis; assay type: functional, cell-based
A549 [2] = test: Anti-cancer activity against human A549 3D cell culture model assessed as inhibition of 3D culture initiation at sub- IC50 incubated for 21 days with replacement of medium containing compound on every seventh day; assay type: functional, cell-based; settings: time 21.0 day
A549 [3] = test: cells; settings: Homo sapiens, A549, 48 h
[4] = target: T1, Protein deacetylase HDAC6 (Homo sapiens, UniProt Q9UBN7); test: Inhibition of HDAC6 (unknown origin) using acetylated-peptide substrate by fluorometric assay
T1 sequence (Q9UBN7 whole entry): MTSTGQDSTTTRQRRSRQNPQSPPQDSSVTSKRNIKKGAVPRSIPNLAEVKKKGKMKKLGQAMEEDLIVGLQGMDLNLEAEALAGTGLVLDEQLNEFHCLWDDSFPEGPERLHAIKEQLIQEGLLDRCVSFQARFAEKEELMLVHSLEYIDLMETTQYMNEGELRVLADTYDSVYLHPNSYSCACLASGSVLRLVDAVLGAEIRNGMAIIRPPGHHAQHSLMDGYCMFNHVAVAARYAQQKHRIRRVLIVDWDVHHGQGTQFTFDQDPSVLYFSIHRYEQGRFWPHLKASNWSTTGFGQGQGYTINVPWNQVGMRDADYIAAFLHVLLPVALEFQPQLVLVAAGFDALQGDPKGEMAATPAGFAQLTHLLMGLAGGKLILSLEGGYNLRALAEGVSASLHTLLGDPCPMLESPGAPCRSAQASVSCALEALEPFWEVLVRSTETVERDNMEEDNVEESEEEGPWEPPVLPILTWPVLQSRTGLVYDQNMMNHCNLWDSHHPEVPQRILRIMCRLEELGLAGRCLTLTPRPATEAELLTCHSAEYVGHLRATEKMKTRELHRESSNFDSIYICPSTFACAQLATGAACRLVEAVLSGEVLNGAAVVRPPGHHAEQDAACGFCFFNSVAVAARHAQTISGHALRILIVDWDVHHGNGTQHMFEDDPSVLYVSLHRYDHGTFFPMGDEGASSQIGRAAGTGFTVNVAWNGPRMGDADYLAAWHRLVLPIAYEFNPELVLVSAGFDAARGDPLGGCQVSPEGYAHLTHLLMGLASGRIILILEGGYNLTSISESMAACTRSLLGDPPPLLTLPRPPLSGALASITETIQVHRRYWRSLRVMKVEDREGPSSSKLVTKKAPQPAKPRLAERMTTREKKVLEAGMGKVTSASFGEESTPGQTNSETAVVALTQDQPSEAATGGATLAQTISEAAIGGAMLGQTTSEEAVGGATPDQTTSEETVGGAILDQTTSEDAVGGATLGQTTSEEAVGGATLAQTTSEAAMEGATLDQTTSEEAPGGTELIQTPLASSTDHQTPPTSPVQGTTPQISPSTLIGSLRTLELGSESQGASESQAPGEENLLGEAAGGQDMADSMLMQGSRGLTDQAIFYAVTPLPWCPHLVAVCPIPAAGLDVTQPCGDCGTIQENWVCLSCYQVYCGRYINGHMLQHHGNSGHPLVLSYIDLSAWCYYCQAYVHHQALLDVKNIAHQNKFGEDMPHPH

HT-29 = test: cells; assay type: functional, cell-based; settings: Homo sapiens, HT-29, 48 h
A549 [5] = test: Induction of ROS generation in human A549 cells incubated for 48 hrs by Cell Rox red staining based flow cytometry; assay type: functional
A549 [6] = test: Induction of ROS generation in human A549 cells incubated for 48 hrs by DCFH-DA staining based analysis; assay type: functional, cell-based
[7] = target: T2, DNA topoisomerase 1 (Homo sapiens) (UniProt P11387); test: Inhibition of human Topo I-mediated relaxation of supercoiled DNA preincubated for 30 mins followed by proteinase K addition measured after 30 mins by gel electrophoresis; settings: time 60.0 min
T2 sequence (whole entry): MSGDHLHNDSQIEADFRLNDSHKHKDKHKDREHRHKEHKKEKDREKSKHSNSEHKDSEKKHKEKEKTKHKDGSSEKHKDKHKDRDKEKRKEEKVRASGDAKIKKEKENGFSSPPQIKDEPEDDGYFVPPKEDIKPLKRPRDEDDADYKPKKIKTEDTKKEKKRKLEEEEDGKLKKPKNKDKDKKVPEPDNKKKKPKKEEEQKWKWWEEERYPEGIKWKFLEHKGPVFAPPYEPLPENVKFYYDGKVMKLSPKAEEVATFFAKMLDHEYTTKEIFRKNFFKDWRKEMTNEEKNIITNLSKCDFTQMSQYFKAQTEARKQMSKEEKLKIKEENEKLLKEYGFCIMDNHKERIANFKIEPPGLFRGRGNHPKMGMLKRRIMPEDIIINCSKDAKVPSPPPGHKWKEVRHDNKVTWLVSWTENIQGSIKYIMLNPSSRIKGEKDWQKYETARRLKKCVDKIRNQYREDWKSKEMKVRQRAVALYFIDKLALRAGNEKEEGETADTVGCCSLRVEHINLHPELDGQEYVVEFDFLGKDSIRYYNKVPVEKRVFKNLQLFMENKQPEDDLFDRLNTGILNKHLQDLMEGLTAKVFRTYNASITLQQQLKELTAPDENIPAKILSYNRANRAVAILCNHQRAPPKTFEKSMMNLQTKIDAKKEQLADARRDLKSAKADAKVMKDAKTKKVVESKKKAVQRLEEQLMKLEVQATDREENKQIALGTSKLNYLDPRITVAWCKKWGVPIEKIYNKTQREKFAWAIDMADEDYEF

Histone deacetylase 8 = target: T3, Histone deacetylase 8 (Homo sapiens, UniProt Q9BY41); test: Inhibition of HDAC8 (unknown origin) by fluorometric assay
T3 sequence (Q9BY41 whole entry): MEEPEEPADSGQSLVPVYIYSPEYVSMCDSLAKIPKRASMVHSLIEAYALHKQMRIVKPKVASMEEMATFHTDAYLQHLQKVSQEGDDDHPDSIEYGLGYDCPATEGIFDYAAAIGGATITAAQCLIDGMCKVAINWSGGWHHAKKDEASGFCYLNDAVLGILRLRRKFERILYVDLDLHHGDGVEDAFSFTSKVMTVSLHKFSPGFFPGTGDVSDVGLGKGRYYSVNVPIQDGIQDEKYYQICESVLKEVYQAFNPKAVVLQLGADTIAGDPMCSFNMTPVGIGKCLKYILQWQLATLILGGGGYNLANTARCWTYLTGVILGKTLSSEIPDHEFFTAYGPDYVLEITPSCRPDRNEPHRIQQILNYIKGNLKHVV

A549 [8] = test: Anti-cancer activity against human A549 3D cell culture model at sub- IC50 incubated for 17 days with replacement of medium containing compound on every third day; assay type: functional, cell-based; settings: time 17.0 day
MDA-MB-231 = test: Anti-cancer activity against human MDA-MB-231 cells assessed as increase in let7a mRNA level by qPCR analysis; assay type: functional, cell-based
MCF7 = test: cells; assay type: functional, cell-based; settings: Homo sapiens, MCF7, 48 h

Row | Structure (SMILES) | Activity (A549 [1]) | inhibition (A549 [2]) | IC50 (A549 [3]) | IC50 [4] | IC50 (HT-29) | Activity (A549 [5]) | Activity (A549 [6]) | inhibition [7] | IC50 (Histone deacetylase 8) | Activity (A549 [8]) | Activity (MDA-MB-231) | IC50 (MCF7)
1 | COc1ccc(-c2ccc3cc(OCCCCCC(=O)NO)ccc3n2)cc1 | Active; Result Signifies That Cell Death Induced Via Mitochondrial-Dependent Pathways | Active | 702 nM | 22.9 nM | 5760 nM | Active | Active | Active | > 500 nM | Active; Exhibited Commendable Decrease In Mass Of 3D Sphere | Active | 1980 nM
2 | COc1ccc(-c2ccc3ccc(OCCCCCCC(=O)NO)cc3n2)cc1I | Not active; Result Signifies That Cell Death Induced Via Mitochondrial-Independent Pathways | Active | 1970 nM | 137 nM | 1860 nM | Active | Active | Active | > 500 nM | Active; Exhibited Potent Effect | Active | 3020 nM

From ChEMBL document CHEMBL6121021, “Design and Synthesis of Topoisomerases-Histone Deacetylase Dual Targeted Quinoline-Bridged Hydroxamates as Anticancer Agents” (J Med Chem, 2025)
